Laboratory results reported in US8716472B2, “Tripodal cyclohexane derivatives and their use as carbohydrate receptors” (University of Rochester, priority 2006, dated 2014).
Entries after “also recorded” stand apart in the source; their conditions may differ. Blank lines part the entries; values can stand above or below the compound they belong to.

Key:
[1] = 1D 1H NMR titration of receptor with octyl pyranoside; type: binding; details: n-octyl-β-D-glucopyranoside; CDCl3, 298° K; receptor 1 mM
Procedure: The binding affinity of Compound 11 to octyl pyranosides was tested using 1D ^1H NMR titrations in dry and deacidified CDCl3 at 298° K. The Compound 11 in fixed concentration (1 mM) was titrated with increasing amount of n-octyl-β-D-glucopyranoside and the change in the amide proton resonance of Compound 11 was monitored (FIG. 5A).

[2] = 1H NMR reverse titration (receptor into the sugar) and Job plot; type: binding; details: CDCl3, n-octyl-β-D-glucopyranoside
Procedure: (§1) The binding affinity of Compound 12 towards a set of octylglycosides (FIG. 15) was measured using ^1H NMR titrations in CDCl3 and UV titrations in chloroform and methanol.
A reverse titration format (receptor into the sugar) was employed for estimating binding by ^1H NMR titrations in order to avoid the complications caused due to micelles formation by octylglycosides at higher concentrations (Vacca et al., J. Am. Chem. Soc. 126:16456-16465 (2004), which is hereby incorporated by reference in its entirety). […] Job plot analysis (as modified for NMR) (Fokkens et al., Chem. Eur. J. 11:477-494 (2005), which is hereby incorporated by reference in its entirety) verified a 1:1 association between Compound 12 and n-octyl-β-D-glucopyranoside (FIG. 9B).

[3] = UV-Vis titration of n-octyl monosaccharides with receptor; type: binding; details: for Ka in chloroform / Ka in methanol: 298° K
Procedure: as §1
(§2) To derive quantitative binding information, UV-Vis titrations were performed. The receptor at fixed concentration was titrated with the octylglycosides in dry and deacidified chloroform or methanol (298° K). Each titration was performed in duplicate to verify results.

[4] = UV-Vis titration, octanol control; type: binding; details: 298° K
Procedure: as §1, §2

[5] = Fluorescence titration of n-octyl monosaccharides with receptor; type: binding; details: 298° K
Procedure: as §1
(§3) The same titration protocol employed in Example 7 was also employed in this Example (methanol at 298° K; duplicate titrations).
(§4) Fluorescence titrations of 7 with the set of octylglycosides (FIG. 15) in methanol were performed to study the effect of substitution of 4-methylquinoline instead of 4-cyanopyridine on the binding affinity and selectivity of Compound 12. […] The stoichiometry of binding between Compound 7 and n-octyl-α-D-glucopyranoside was determined by Job plot to be 1:1 (FIG. 12).

[6] = Fluorescence titration, octanol control; type: binding; details: 298° K
Procedure: as §1, §3, §4

[7] = n-octyl β-D-galacto pyranoside, UV-Vis

Structure (SMILES): N#Cc1ccncc1 [4-cyanopyridine, reference compound]
- changes in carbohydrate hydroxyl chemical shifts on titration into the sugar [2]: no chemical shift changes were observed

Structure (SMILES): c1cnc(C2CC(c3cnccn3)CC(c3cnccn3)C2)cn1 (stereo not drawn) [Compound 2, 2,2′,2″-cyclohexane-1,3,5-triyltripyrazine]
- melting point: 122 to 124 °C

Structure (SMILES): Cc1cc(C2CC(c3cc(C)c4ccccc4n3)CC(c3cc(C)c4ccccc4n3)C2)nc2ccccc12 (stereo not drawn) [Compound 7, 2,2,2″-cyclohexane-1,3,5-triyltri(4-methylquinoline)]
- Ka in methanol ([5]; n-octyl α-D-galacto pyranoside): 6,600 ± 200 M^−1
- Ka in methanol ([5]; n-octyl α-D-gluco pyranoside): 14,900±1700 M^−1
- Ka in methanol ([5]; n-octyl α-D-manno pyranoside): 2600 ± 200 M⁻¹
- Ka in methanol ([5]; n-octyl β-D-galacto pyranoside): 3,200 ± 80 M^−1
- Ka in methanol ([5]; n-octyl β-D-gluco pyranoside): 9,200 ± 600 M^−1
- Ka in methanol ([5]; n-octyl β-D-manno pyranoside): >400 M⁻¹
- Ka in methanol [6]: (no binding)

The next lines start with results.

- Ka (measured affinity, NMR titration) [1]: 91 M⁻¹
Structure (SMILES): Cc1cccc(NC(=O)[C@H]2C[C@@H](C(=O)Nc3cccc(C)n3)C[C@@H](C(=O)Nc3cccc(C)n3)C2)n1 [Compound 11, cis-cyclohexane-1,3,5-tricarboxylic acid tris-[(6-methyl-pyridin-2-yl)-amide]]

- melting point: 126 to 128 °C
Structure (SMILES): c1cc(C2CC(c3ccncn3)CC(c3ccncn3)C2)ncn1 (stereo not drawn) [Compound 3, 4,4′,4″-cyclohexane-1,3,5-triyltripyrimidine]

- affinity for n-octyl-β-D-galactopyranoside relative to the β-D-glucopyranoside ([3]; UV-Vis titration): roughly half
- Ka in chloroform ([3]; n-octyl α-D-galacto pyranoside): 17,600 ± 100 M^−1
- Ka in methanol ([3]; n-octyl α-D-galacto pyranoside): 9,200 ± 1,100 M^−1
- Ka in chloroform ([3]; n-octyl α-D-gluco pyranoside): 183,000±4,200 M^−1
- Ka in methanol ([3]; n-octyl α-D-gluco pyranoside): 52,000 ± 2,700 M^−1
- Ka in chloroform ([3]; n-octyl α-D-manno pyranoside): 6,700 ± 700 M^−1
- Ka in methanol ([3]; n-octyl α-D-manno pyranoside): >1,200 M^−1
- Ka in chloroform [3, 7]: 9,800 ± 100 M^−1
- Ka in methanol [3, 7]: 7,200 ± 1,700 M^−1
- Ka in chloroform ([3]; n-octyl β-D-gluco pyranoside): 25,000 ± 600 M^−1
- Ka in methanol ([3]; n-octyl β-D-gluco pyranoside): 11,100 ± 600 M^−1
- Ka in methanol ([3]; n-octyl β-D-manno pyranoside): (not saturable)
- changes in carbohydrate hydroxyl chemical shifts on titration into the sugar [2]: clearly visible
Structure (SMILES): N#Cc1ccnc(C2CC(c3cc(C#N)ccn3)CC(c3cc(C#N)ccn3)C2)c1 (stereo not drawn) [Compound 12, 2,2′,2″-cyclohexane-1,3,5-triyltri(4-cyanopyridinyl)]
- Ka in chloroform ([3]; n-octyl β-D-manno pyranoside): did not reach saturation up to the limit of the titration; also recorded: (not saturable)
- Ka in chloroform [4]: No binding; also recorded: (no binding)

- Ka in chloroform ([3]; n-octyl α-D-gluco pyranoside): no affinity
Structure (SMILES): N#Cc1ccnc(C2CC(c3cc(C#N)ccn3)CC(c3cnccc3C#N)C2)c1 (stereo not drawn) [Compound 14, 2,2′,3′-cyclohexane-1,3,5-triyltri(4-cyanopyridinyl)]
